According to patent US20240335404A1, “SUBSTITUTED ESTERS CONTAINING POLYOLS AND SACCHARIDES FOR TREATING HEPATOTOXICITY AND FATTY LIVER DISEASES” (SINEW PHARMA INC., priority 2015, published 2024):

System: fatty liver
Assay: High fat diet-induced fatty liver in B6 mice
Format: in vivo
Conditions: HFD mice; for GSH / Gpx / Grd / SOD: liver; for ALT / AST / TC in liver / TG in liver: administration period of 4 weeks; for liver TC / liver TG: 4 or 8 weeks; for ALT and AST values: compounds administered separately; for liver tissue sections, H&E: treated for 4 weeks, FIG. 5
Protocol: More than four mice were used in each group of the pre-test, while more than twelve mice were used in each group of the confirmatory test. […] The animal test was carried out according to the guideline for animal experiment of National Health Research Institutes. […] The weight of mice was recorded once a week. The tested animals were grouped randomly into Blank, High Fat Diet control (HFD), Positive Control (PS), and Test group. The animals of Blank were fed with normal feed. The animals of HFD were fed with high fat feed. […] The animals of Test group were fed with high fat feed, and additionally fed with test compounds by a tube. The animals of Blank were fed casually with normal feed for 12 weeks, while the animals of HFD, PS, and Test group were fed casually with high fat feed for 12 weeks. After 8 weeks of feeding, the animals of Blank and HFD were fed with deionized water by a tube once a day; the animals of PS were fed with silymarin by a tube once a day; and the animals of Test Group were fed with test compounds by a tube once a day for a duration of 4 or 8 weeks. Before testing and in the eighth, twelfth, and sixteenth week after testing, blood was collected from the cheek or the heart. At the end of testing, all mice were weighted and then sacrificed, and blood was collected from the cheek or the heart simultaneously. The blood specimens of mice rested at room temperature for one hour to clot, and then the serum was separated by centrifugation in a refrigeration centrifuge at 15,700×g at 4° C. for 5 minutes. Afterwards, biochemical indices of liver function, including aspartate transaminase (AST), alanine aminotransferase (ALT), triglyceride (TG), total cholesterol (TCHO/TC), low-density lipoprotein cholesterol (LDL-C), and high-density lipoprotein cholesterol (HDL-C), were detected by the automatic blood biochemistry analyzer. In addition, abdominal fat and liver specimens were taken from the abdomens of sacrificed mice and weighted to compare the weight of fat and liver and obtain the ratio of liver weight to body weight. […] The cut sections proceeded with H&E staining for histopathological observation. Moreover, the rest of the liver was frozen for preservation and detection of the contents of triglyceride and total cholesterol in the liver. Furthermore, the liver function of animals of each group were analyzed by Galactose Single Point Method, which was recognized and recommended for quantification of remaining liver function in clinical use by U.S. FDA and Ministry of Health and Welfare, Taiwan. […] One hour after the administration, about 0.5 ml of whole blood was taken by using a filter paper to evaluate liver function of mice. The higher the value of GSP was, the worse the remaining liver function would be. (FDA: “Guidance for Industry: Pharmacokinetics in Patients with Impaired. Hepatic Function-Study Design, Data Analysis and Impact on Dosing and. Labeling. 2003. At the end of the test, all mice were sacrificed. […] Afterwards, xylene was replaced with hot paraffin solution. At last, the tissue was embedded with paraffin solution. The finished paraffin specimen was cut into […] paraffin sections by the microtome. The sections were pasted on clean slides, dried at 37° C., and then stained by H&E staining. In order to observe the changes of lesion, fat accumulation, necrosis, or fibrosis in liver cells when there was an ongoing liver damage, liver tissues were H&E stained to evaluate the degree of liver fat accumulation. All the histopathological sections were cut from the same position on the largest right lobe of liver for eliminating bias in subjective observation, and then subject to pathological staining. As for the assessment of semi-quantitative analysis in pathology, it had to be confirmed by a physician or a veterinary pathologist who conducted a double-blind analysis to score (NAS score) and compare all the sections without knowing the test design. […]

[1] = 2.5 mg/kg, test period of 4 weeks
[2] = 1.5 mg/kg, test period of 4 weeks

Row | SMILES | GSH [1] | Gpx [1] | Grd [1] | SOD [1] | Abdominal fat weight (2.5 mg/kg) | Increase of body weight (2.5 mg/kg) | Liver weight (2.5 mg/kg) | ALT (2.5 mg/kg) | AST (2.5 mg/kg) | TC in liver (2.5 mg/kg) | TG in liver (2.5 mg/kg) | liver TC | liver TG | liver antioxidant activity (4 weeks) | ALT and AST values | liver tissue sections, H&E | Abdominal fat weight (1.5 mg/kg) | Increase of body weight (1.5 mg/kg) | Liver weight (1.5 mg/kg) | ALT (1.5 mg/kg) | further results
1 | O=C1C[C@@H](c2ccc(O)c(O)c2)Oc2cc(O)cc(O)c21 [Eriodictyol] | 1302.0 ± 241.1 U/L | 3083.3 ± 378.9 U/L | 86.9 ± 15.7 U/L | 385.9 ± 34.0 U/L | 2.7 ± 0.6 g | 8.3 ± 6.7 g | 1.3 ± 0.1 g | 33.7 ± 18.5 U/L | 100.9 ± 42.0 U/L | 3.8 ± 1.1 mg/g liver | 43.1 ± 13.1 mg/g liver | reduce TC in liver significantly | reduce TG in liver significantly | improve antioxidant activity significantly | reduce ALT and AST values significantly | large vesicular fat droplets within liver cells in liver tissue section were significantly reduced | – | – | – | – | NAS [1]: 1.5 ± 0.8 mg/g liver; ALT (5.0 mg/kg): 41.4 ± 6.3 U/L; AST (5.0 mg/kg): 161.4 ± 42.3 U/L; TC in liver (5.0 mg/kg): 3.0 ± 0.9 mg/g liver; TG in liver (5.0 mg/kg): 54.2 ± 15.0 mg/g liver; reduction in liver TG content (4-week treatment, p<0.005): about 67%; liver damage, NAS (4 weeks): reduce liver damage significantly
2 | COc1ccc([C@@H]2CC(=O)c3c(O)cc(O)cc3O2)cc1O [Hesperitin] | 1742.6 ± 241.5 U/L | 3133.3 ± 376.9 U/L | 102.5 ± 28.3 U/L | 408.3 ± 66.7 U/L | 3.0 ± 0.5 g | 14.5 ± 8.3 g | 1.5 ± 0.1 g | 36.8 ± 22.1 U/L | 72.4 ± 11.2 U/L | 3.7 ± 0.7 mg/g liver | 67.8 ± 16.6 mg/g liver | reduce TC in liver significantly | reduce TG in liver significantly | improve antioxidant activity significantly | reduce ALT and AST values significantly | – | – | – | – | – | –
3 | CC1CCC(C(C)C)C(O)C1 (centres unmarked) [Menthol] | – | – | – | – | – | – | – | – | – | – | – | reduce TC in liver significantly | reduce TG in liver significantly | – | reduce ALT and AST values significantly | large vesicular fat droplets within liver cells in liver tissue section were significantly reduced | 2.3 ± 0.6 g | 19.6 ± 5.0 g | 1.6 ± 0.2 g | 41.5 ± 13.7 U/L | weight of abdominal fat: reduce the weight of abdominal fat in animals significantly; GSH [2]: 1432.7 ± 104.0 U/L; Gpx [2]: 2921.7 ± 640.2 U/L; Grd [2]: 95.2 ± 16.2 U/L; SOD [2]: 427.9 ± 41.9 U/L; AST (1.5 mg/kg): 129.9 ± 37.1 U/L; TC in liver (1.5 mg/kg): 4.4 ± 3.5 mg/g liver; TG in liver (1.5 mg/kg): 87.3 ± 72.3 mg/g liver
4 | O=C(CCc1ccc(O)cc1)c1c(O)cc(O)cc1O[C@@H]1O[C@H](CO)[C@@H](O)[C@H](O)[C@H]1O [Phloridzin] | 1387.7 ± 168.2 U/L | 3234.0 ± 505.1 U/L | 82.2 ± 33.6 U/L | 411.5 ± 87.5 U/L | 2.3 ± 0.6 g | 13.7 ± 10.7 g | 1.3 ± 0.1 g | 35.7 ± 9.1 U/L | 161.9 ± 96.2 U/L | 2.9 ± 0.5 mg/g liver | 48.9 ± 14.1 mg/g liver | – | – | – | – | – | – | – | – | – | –
5 | O=c1c(-c2ccc(O)cc2)coc2c([C@@H]3O[C@H](CO)[C@@H](O)[C@H](O)[C@H]3O)c(O)ccc12 [Puerarin] | 1498.1 ± 150.0 U/L | 3581.7 ± 1056.7 U/L | 99.0 ± 17.2 U/L | 434.5 ± 59.8 U/L | 2.8 ± 0.3 g | 21.7 ± 3.1 g | 1.4 ± 0.2 g | 34.4 ± 14.7 U/L | 66.9 ± 8.5 U/L | 6.7 ± 2.7 mg/g liver | 89.4 ± 49.1 mg/g liver | – | reduce TG in liver significantly | improve antioxidant activity significantly | reduce ALT and AST values significantly | – | – | – | – | – | –
6 | O=C1NS(=O)(=O)c2ccccc21 [Saccharin] | – | – | – | – | – | – | – | – | – | – | – | reduce TC in liver significantly | – | – | reduce ALT and AST values significantly | – | 2.3 ± 0.5 g | 27.7 ± 12.7 g | 1.5 ± 0.1 g | 50.7 ± 29.7 U/L | AST (1.5 mg/kg): 170.4 ± 28.6 U/L; TC in liver (1.5 mg/kg): 2.8 ± 1.5 mg/g liver; TG in liver (1.5 mg/kg): 84.0 ± 41.4 mg/g liver; reduction in liver TC content (4-week treatment, p<0.005): about 56%
